From patent US8846933B2, “N-link hydroxamic acid derivatives useful as antibacterial agents” (Pfizer Inc., priority 2009, dated 2014) come the findings set out here.

The test system of experiment [1] is Pseudomonas aeruginosa UI-18: Wild-type (PA-7). Briefly: MIC determination (CLSI), strain PA-7. In kind it is cell-based. Conditions: strain PA-7, unit assumed. In a few lines:
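MIC determined by broth dilution per CLSI M7-A7 guidelines with M100-S18 interpretive standards. Test organism: wild-type Pseudomonas aeruginosa UI-18, designated PA-7.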

Experiment [2] has as its system Escherichia coli EC-1: VOGEL, mouse virulent. Briefly: MIC determination (CLSI), strain EC-1. As to conditions: strain EC-1, unit assumed. In kind it is cell-based. The method, boiled down: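 The mouse-virulent VOGEL isolate of E. coli, EC-1, served as test organism. Minimum inhibitory concentration was measured by CLSI dilution methodology (M7-A7; M100-S18 standards).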

The mark [3] stands for this setting: generated in the same manner as in Table 4.

`CC(CCn1ccc(-c2ccc(C(F)(F)CO)cc2)cc1=O)(C(=O)NO)S(C)(=O)=O` (stereo not shown) [Example 69, 4-{4-[4-(1,1-difluoro-2-hydroxyethyl)phenyl]-2-oxopyridin-1(2H)-yl}-N-hydroxy-2-methyl-2-(methylsulfonyl)butanamide] returned a PA-7 (MIC) in experiment [1] (setting [3]) of 16 µg/mL. Moreover, the EC-1 (MIC) in experiment [2] (setting [3]) worked out at 4 µg/mL.
For `C[C@@](CCn1ccc(-c2ccc(-c3cscn3)cc2)cc1=O)(C(=O)NO)S(C)(=O)=O` [Example 405, (2R)-N-hydroxy-2-methyl-2-(methylsulfonyl)-4-{2-oxo-4-[4-(1,3-thiazol-4-yl)phenyl]pyridin-1(2H)-yl}butanamide], the PA-7 (MIC) in experiment [1] was 1 µg/mL. In experiment [2], this compound registered an EC-1 (MIC) of 0.125 µg/mL.
The matching figures for `Cc1cnc2ccc(-c3ccn(CCC(C)(C(=O)NO)S(C)(=O)=O)c(=O)c3)cc2c1` (stereo not shown) [Example 301, N-hydroxy-2-methyl-4-[4-(3-methylquinolin-6-yl)-2-oxopyridin-1(2H)-yl]-2-(methylsulfonyl)butanamide]: 16 µg/mL and 4 µg/mL.
The matching figures for `C[C@@](CCn1ccc(-c2ccccc2Cl)cc1=O)(C(=O)NO)S(C)(=O)=O` [Example 341, (2R)-4-[4-(2-chlorophenyl)-2-oxopyridin-1(2H)-yl]-N-hydroxy-2-methyl-2-(methylsulfonyl)butanamide]: 2 µg/mL and 4 µg/mL.
Take `Cc1c(F)cccc1-c1ccn(CCC(C)(C(=O)NO)S(C)(=O)=O)c(=O)c1` (stereo not shown) [Example 153, 4-[4-(3-fluoro-2-methylphenyl)-2-oxopyridin-1(2H)-yl]-N-hydroxy-2-methyl-2-(methylsulfonyl)butanamide]: the PA-7 (MIC) in experiment [1] (setting [3]) worked out at 8 µg/mL. The EC-1 (MIC) in experiment [2] (setting [3]) was 32 µg/mL.
With `CC(CCn1ccc(-c2ccc(OCC3CCCCC3)nc2)cc1=O)(C(=O)NO)S(C)(=O)=O` (stereo not shown) [Example 181, 4-[6-(cyclohexylmethoxy)-2′-oxo-3,4′-bipyridin-1′(2′H)-yl]-N-hydroxy-2-methyl-2-(methylsulfonyl)butanamide], the PA-7 (MIC) in experiment [1] (setting [3]) is 4 µg/mL. Besides, the EC-1 (MIC) in experiment [2] (setting [3]) was found to be 0.125 µg/mL.
The matching figures for `CCCn1cc(-c2ccn(CCC(C)(C(=O)NO)S(C)(=O)=O)c(=O)c2)cn1` (stereo not shown) [Example 152, N-hydroxy-2-methyl-2-(methylsulfonyl)-4-[2-oxo-4-(1-propyl-1H-pyrazol-4-yl)pyridin-1(2H)-yl]butanamide]: greater than 64 µg/mL and greater than 64 µg/mL.
As for `CC(C)(O)Cc1ccc(-c2ccn(CCC(C)(C(=O)NO)S(C)(=O)=O)c(=O)c2)cc1` (stereo not shown) [Example 255, N-hydroxy-4-{4-[4-(2-hydroxy-2-methylpropyl)phenyl]-2-oxopyridin-1(2H)-yl}-2-methyl-2-(methylsulfonyl)butanamide], the PA-7 (MIC) in experiment [1] worked out at 8 µg/mL. Further, the EC-1 (MIC) in experiment [2] was 2 µg/mL.
On the same counts, the results for `CC(C#N)Sc1cccc(-c2ccn(CC[C@](C)(C(=O)NO)S(C)(=O)=O)c(=O)c2)c1` (stereo partly shown) [Example 475] are 8 µg/mL and 8 µg/mL.
The matching figures for `COc1ccc(OC)c(-c2ccn(CCC(C)(C(=O)NO)S(C)(=O)=O)c(=O)c2)c1` (stereo not shown) [Example 195, 4-[4-(2,5-dimethoxyphenyl)-2-oxopyridin-1(2H)-yl]-N-hydroxy-2-methyl-2-(methylsulfonyl)butanamide]: greater than 64 µg/mL and greater than 64 µg/mL.
In the case of `C/C(=N\O)c1ccc(-c2ccn(CCC(C)(C(=O)NO)S(C)(=O)=O)c(=O)c2)cc1` (stereo not shown) [Example 80, N-hydroxy-4-[4-{4-[(1E)-N-hydroxyethanimidoyl]phenyl}-2-oxopyridin-1(2H)-yl]-2-methyl-2-(methylsulfonyl)butanamide], the PA-7 (MIC) in experiment [1] (setting [3]) is 32 µg/mL. In experiment [2] (setting [3]), this compound came in with an EC-1 (MIC) of 8 µg/mL.
For `CC(C)(C#N)c1ccc(-c2ccn(CC[C@](C)(C(=O)NO)S(C)(=O)=O)c(=O)c2)cc1` [Example 362, (2R)-4-{4-[4-(1-cyano-1-methylethyl)phenyl]-2-oxopyridin-1(2H)-yl}-N-hydroxy-2-methyl-2-(methylsulfonyl)butanamide], the PA-7 (MIC) in experiment [1] came out at 4 µg/mL. The compound further yielded an EC-1 (MIC) in experiment [2] of 16 µg/mL.
The matching figures for `Cc1nc(C)n(-c2ccc(-c3ccn(CC[C@](C)(C(=O)NO)S(C)(=O)=O)c(=O)c3)cc2)n1` [Example 384, (2R)-4-{4-[4-(3,5-dimethyl-1H-1,2,4-triazol-1-yl)phenyl]-2-oxopyridin-1(2H)-yl}-N-hydroxy-2-methyl-2-(methylsulfonyl)butanamide]: 16 µg/mL and 8 µg/mL.
On the same counts, the results for `C[C@@](CCn1ccc(-c2cc(F)cc(F)c2)cc1=O)(C(=O)NO)S(C)(=O)=O` [Example 335, (2R)-4-[4-(3,5-difluorophenyl)-2-oxopyridin-1(2H)-yl]-N-hydroxy-2-methyl-2-(methylsulfonyl)butanamide] are 2 µg/mL and 1 µg/mL.
The matching figures for `COc1cc(-c2ccn(CC[C@](C)(C(=O)NO)S(C)(=O)=O)c(=O)c2)c(F)cc1C#N` [Example 477]: 32 µg/mL and 64 µg/mL.
The compound `COC(=O)CCc1ccc(-c2ccn(CC[C@](C)(C(=O)NO)S(C)(=O)=O)c(=O)c2)cc1` [Example 478] had a PA-7 (MIC) in experiment [1] of 1 µg/mL. In experiment [2], this compound displayed an EC-1 (MIC) of 2 µg/mL.
On the same counts, the results for `COc1cc(-c2ccn(CCC(C)(C(=O)NO)S(C)(=O)=O)c(=O)c2)ccc1OCCCCO` (stereo not shown) [Example 242, N-hydroxy-4-{4-[4-(4-hydroxybutoxy)-3-methoxyphenyl]-2-oxopyridin-1(2H)-yl}-2-methyl-2-(methylsulfonyl)butanamide] are 64 µg/mL and 32 µg/mL.
The matching figures for `CC(CCn1ccc(-c2ccc(OCCCO)cc2F)cc1=O)(C(=O)NO)S(C)(=O)=O` (stereo not shown) [Example 250, 4-{4-[2-fluoro-4-(3-hydroxypropoxy)phenyl]-2-oxopyridin-1(2H)-yl}-N-hydroxy-2-methyl-2-(methylsulfonyl)butanamide]: 4 µg/mL and 2 µg/mL.
Take `C[C@@](CCn1ccc(-c2ccc(-c3cc(CO)no3)cc2)cc1=O)(C(=O)NO)S(C)(=O)=O` [Example 408, (2R)-N-hydroxy-4-[4-{4-[3-(hydroxymethyl)isoxazol-5-yl]phenyl}-2-oxopyridin-1(2H)-yl]-2-methyl-2-(methylsulfonyl)butanamide]: the PA-7 (MIC) in experiment [1] was determined as 8 µg/mL. Also, in experiment [2], the EC-1 (MIC) was found to be 8 µg/mL.
`COc1cc(-c2ccn(CCC(C)(C(=O)NO)S(C)(=O)=O)c(=O)c2)ccc1OCCCO` (stereo not shown) [Example 249, N-hydroxy-4-{4-[4-(3-hydroxypropoxy)-3-methoxyphenyl]-2-oxopyridin-1(2H)-yl}-2-methyl-2-(methylsulfonyl)butanamide] returned a PA-7 (MIC) in experiment [1] of 64 µg/mL. In experiment [2], this compound returned an EC-1 (MIC) greater than 64 µg/mL.
In turn, `CC(CCn1ccc(-c2ccc(C3CCCCC3)cc2)cc1=O)(C(=O)NO)S(C)(=O)=O` (stereo not shown) [Example 119, 4-[4-(4-cyclohexylphenyl)-2-oxopyridin-1(2H)-yl]-N-hydroxy-2-methyl-2-(methylsulfonyl)butanamide] registered a PA-7 (MIC) in experiment [1] (setting [3]) of 16 µg/mL. Moreover, the EC-1 (MIC) in experiment [2] (setting [3]) turned out to be 0.5 µg/mL.
The matching figures for `CN(C)c1ccc(-c2ccn(CCC(C)(C(=O)NO)S(C)(=O)=O)c(=O)c2)cn1` (stereo not shown) [Example 116, 4-[6-(dimethylamino)-2′-oxo-3,4′-bipyridin-1′(2′H)-yl]-N-hydroxy-2-methyl-2-(methylsulfonyl)butanamide]: 64 µg/mL and 16 µg/mL.
Consider `CCOc1ccc(-c2ccn(CC[C@](C)(C(=O)NO)S(C)(=O)=O)c(=O)c2)cc1C#N` [Example 479], for which the PA-7 (MIC) in experiment [1] was 16 µg/mL. In addition, in experiment [2], the EC-1 (MIC) stood at 64 µg/mL.
On the same counts, the results for `CCCCCc1ccc(-c2ccn(CCC(C)(C(=O)NO)S(C)(=O)=O)c(=O)c2)cc1` (stereo not shown) [Example 217, N-hydroxy-2-methyl-2-(methylsulfonyl)-4-[2-oxo-4-(4-pentylphenyl)pyridin-1(2H)-yl]butanamide] are 8 µg/mL and less than 0.06 µg/mL.
Compound `C[C@@](CCn1ccc(-c2ccc(Oc3ccccc3C#N)cc2)cc1=O)(C(=O)NO)S(C)(=O)=O` [Example 426, (2R)-4-{4-[4-(2-cyanophenoxy)phenyl]-2-oxopyridin-1(2H)-yl}-N-hydroxy-2-methyl-2-(methylsulfonyl)butanamide] registered a PA-7 (MIC) in experiment [1] of 1 µg/mL. This compound returned an EC-1 (MIC) in experiment [2] of 0.25 µg/mL.
In experiment [1] (setting [3]), `CC(CCn1ccc(-c2ccsc2)cc1=O)(C(=O)NO)S(C)(=O)=O` (stereo not shown) [Example 107, N-hydroxy-2-methyl-2-(methylsulfonyl)-4-[2-oxo-4-(3-thienyl)pyridin-1(2H)-yl]butanamide] had a PA-7 (MIC) of 16 µg/mL. Also, the EC-1 (MIC) in experiment [2] (setting [3]) turned out to be 32 µg/mL.
Take `CC(C)(CO)c1ccc(-c2ccn(CC[C@](C)(C(=O)NO)S(C)(=O)=O)c(=O)c2)cc1` [Example 350, (2R)-N-hydroxy-4-{4-[4-(2-hydroxy-1,1-dimethylethyl)phenyl]-2-oxopyridin-1(2H)-yl}-2-methyl-2-(methylsulfonyl)butanamide]: the PA-7 (MIC) in experiment [1] is 16 µg/mL. In experiment [2], the EC-1 (MIC) stood at 16 µg/mL.
Take `COCCOCCOc1ccc(-c2ccn(CC[C@](C)(C(=O)NO)S(C)(=O)=O)c(=O)c2)cc1` [Example 403, (2R)-N-hydroxy-4-[4-{4-[2-(2-methoxyethoxy)ethoxy]phenyl}-2-oxopyridin-1(2H)-yl]-2-methyl-2-(methylsulfonyl)butanamide]: in experiment [1], the PA-7 (MIC) turned out to be 4 µg/mL. The EC-1 (MIC) in experiment [2] was 1 µg/mL.
On the same counts, the results for `Cc1cc(-n2nccn2)ccc1-c1ccn(CC[C@](C)(C(=O)NO)S(C)(=O)=O)c(=O)c1` [Example 358, (2R)-N-hydroxy-2-methyl-2-(methylsulfonyl)-4-{4-[2-methyl-4-(2H-1,2,3-triazol-2-yl)phenyl]-2-oxopyridin-1(2H)-yl}butanamide] are 1 µg/mL and 0.25 µg/mL.
